From patent US12139498B1, “Positive allosteric modulators of the muscarinic acetylcholine receptor M4” (Vanderbilt University, priority 2023, dated 2024)

Experiments:
[1] = MDCK-MDR1 permeability / efflux; format: in vitro ADME; details: dog, MDCK-MDR1
Method: (§1) Compound 70 was tested in several in in vitro assays to investigate both metabolism and pharmacokinetics. These assays may be performed according to known methods as generally described in the following references: Conde-Ceide et al. ACS Med. Chem. Lett. 2015, 6, 716-720; Morris et al. J. Med. Chem. 2014, 57, 10192-10197; and Bubser et al. ACS Chem. Neurosci. 2014, 5, 920-942.

MDCK-MDR1 = MDCK-MDR1 permeability / efflux; format: in vitro ADME; details: efflux ratio
Method: as §1

P450 1A2 = molecular target: T1, P450 1A2 (Homo sapiens, UniProt P05177); experiment: P450 1A2 inhibition; format: in vitro ADME
T1 sequence (P05177 1-516): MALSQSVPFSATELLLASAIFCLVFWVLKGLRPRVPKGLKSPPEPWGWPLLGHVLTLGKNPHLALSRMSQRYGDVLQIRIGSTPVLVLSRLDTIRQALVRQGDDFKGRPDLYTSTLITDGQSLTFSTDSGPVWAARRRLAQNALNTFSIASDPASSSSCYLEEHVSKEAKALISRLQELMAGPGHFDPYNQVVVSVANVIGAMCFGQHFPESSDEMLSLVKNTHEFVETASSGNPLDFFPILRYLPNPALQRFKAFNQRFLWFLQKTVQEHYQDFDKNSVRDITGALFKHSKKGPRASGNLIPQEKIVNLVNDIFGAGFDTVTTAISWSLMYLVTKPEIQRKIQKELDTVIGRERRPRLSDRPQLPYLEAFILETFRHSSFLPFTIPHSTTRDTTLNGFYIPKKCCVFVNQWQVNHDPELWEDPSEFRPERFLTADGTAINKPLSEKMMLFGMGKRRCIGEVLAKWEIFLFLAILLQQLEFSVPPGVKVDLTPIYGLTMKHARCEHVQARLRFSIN
Method: as §1

Human M4 = molecular target: T2, Human M4 (Homo sapiens, UniProt P08173); experiment: M4 cell-based functional assay (calcium mobilization); design: expressed in transfected cells
T2 sequence (P08173 1-479): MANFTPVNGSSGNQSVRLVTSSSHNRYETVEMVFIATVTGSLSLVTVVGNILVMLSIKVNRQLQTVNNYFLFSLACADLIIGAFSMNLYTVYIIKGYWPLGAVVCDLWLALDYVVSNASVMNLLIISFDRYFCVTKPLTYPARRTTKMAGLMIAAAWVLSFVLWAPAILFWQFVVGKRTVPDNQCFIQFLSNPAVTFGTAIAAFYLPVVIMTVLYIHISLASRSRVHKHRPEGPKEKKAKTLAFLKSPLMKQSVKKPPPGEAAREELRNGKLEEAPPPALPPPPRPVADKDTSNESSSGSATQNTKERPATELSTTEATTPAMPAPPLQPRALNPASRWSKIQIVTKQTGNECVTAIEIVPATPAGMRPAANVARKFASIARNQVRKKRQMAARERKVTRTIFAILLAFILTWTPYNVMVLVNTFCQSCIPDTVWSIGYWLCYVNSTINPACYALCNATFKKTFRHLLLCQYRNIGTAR
Summary of the method: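 CHO-K1 cells stably co-expressing hM4 and chimeric Gqi5, loaded with Fluo-4-AM (1.15 μM final, 45 min, 37° C). Compound added ~140 s before EC20 then EC80 acetylcholine; calcium flux by kinetic fluorescence (ex 480/em 530 nm), expressed as fold over basal and normalized to maximal ACh response (1 mM).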

SMILES: Cc1c(N2CCc3nc(C4(F)CC4)sc3C2)nc2nn(C)c(=O)n2c1C [Compound 70, 7-(2-(1-fluorocyclopropyl)-6,7-dihydrothiazolo[5,4-c]pyridin-5(4H)-yl)-2,5,6-trimethyl-[1,2,4]triazolo[4,3-a]pyrimidin-3(2H)-one]
- Papp A→B [1]: 36.7 ×10⁻⁶ cm/s
- MDCK-MDR1 ER (MDCK-MDR1): 0.9 (Papp A→ B:
- IC50 (P450 1A2): > 30000 nM
- Emax at 30 µM (Human M4; % ACh maximum at 30 μM): 77%
- EC50 (Human M4; CHO-K1 hM4-Gqi5 cells, calcium flux, increase in EC20 acetylcholine response): 4 nM
